Columns and labels:
[1] = biological target: GDP-bound NRAS wild-type protein (Homo sapiens, UniProt P01111); assay: Binding to NRAS by surface plasmon resonance (SPR), Single Cycle Kinetics; settings: SPR; GDP-bound NRAS wild-type protein vs GDP-bound KRAS wild-type protein; KD ratio class
[2] = test system: human lung cancer strain NCI-H441;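 also: cell proliferation inhibition after four days measured by CellTiter-Glo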
[3] = biological target: GDP-bound HRAS wild-type protein (Homo sapiens, UniProt P01112); assay: Binding to HRAS by surface plasmon resonance (SPR), Single Cycle Kinetics; settings: SPR; GDP-bound HRAS wild-type protein vs GDP-bound KRAS wild-type protein; KD ratio class
[4] = biological target: GDP-bound KRAS wild-type protein (Homo sapiens, UniProt P01116); assay: Binding to KRAS by surface plasmon resonance (SPR), Single Cycle Kinetics; settings: SPR, Single Cycle Kinetics, 1:1 binding model; GDP-bound KRAS wild-type protein; read-out: KRAS KD
Chain of GDP-bound KRAS wild-type protein (P01116 whole entry): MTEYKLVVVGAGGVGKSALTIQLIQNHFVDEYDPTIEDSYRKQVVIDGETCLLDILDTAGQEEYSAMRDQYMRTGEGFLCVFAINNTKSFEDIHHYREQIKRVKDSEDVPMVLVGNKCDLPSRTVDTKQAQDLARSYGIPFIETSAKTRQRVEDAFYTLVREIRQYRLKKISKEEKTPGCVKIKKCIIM

Chain of GDP-bound NRAS wild-type protein (P01111 whole entry): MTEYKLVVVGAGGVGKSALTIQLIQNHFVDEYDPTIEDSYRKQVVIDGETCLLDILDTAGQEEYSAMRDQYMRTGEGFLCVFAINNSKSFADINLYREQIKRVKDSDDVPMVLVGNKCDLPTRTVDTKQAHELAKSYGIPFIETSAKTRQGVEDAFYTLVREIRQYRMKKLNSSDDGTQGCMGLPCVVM
Chain of GDP-bound HRAS wild-type protein (P01112 whole entry): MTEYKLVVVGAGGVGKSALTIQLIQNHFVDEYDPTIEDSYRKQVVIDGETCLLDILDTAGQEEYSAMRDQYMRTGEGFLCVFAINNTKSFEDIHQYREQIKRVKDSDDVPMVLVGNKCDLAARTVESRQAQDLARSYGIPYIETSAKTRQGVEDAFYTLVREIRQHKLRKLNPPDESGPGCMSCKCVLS

| Compound | NRAS/KRAS (ratio of KD value for NRAS to KD value for KRAS) [1] | IC50 [2] [nM] | HRAS/KRAS (ratio of KD value for HRAS to KD value for KRAS) [3] | Kd [4] [nM] |
| --- | --- | --- | --- | --- |
| CCO[C@@H]1C[C@H]2C(=O)NC3(CCC3)C(=O)N(C)[C@@H](C3CCCC3)C(=O)N(C)[C@H](C(=O)N(C)C)CC(=O)N(C)[C@@H](CC3CCCC3)C(=O)N[C@@H]([C@@H](C)CC)C(=O)N(C)CC(=O)N(C)[C@H]3C/C=C\CCN(C3=O)[C@@H](Cc3ccc(C(F)(F)F)cc3)C(=O)N(C)CC(=O)N[C@@H](CCc3ccc(Cl)c(Cl)c3)C(=O)N2C1 [PP1254] | AA (a compound having 20 or more is denoted as AA) | 28.3 | A (a compound having 10 or more and less than 20 is denoted as A) | 0.2 |
| CCO[C@@H]1C[C@H]2C(=O)NC3(CCC3)C(=O)N(C)[C@@H](C3CCCC3)C(=O)N(C)[C@H](C(=O)N(C)C)CC(=O)N(C)[C@@H](CC)C(=O)N[C@@H]([C@@H](C)CC)C(=O)N(C)CC(=O)N(C)[C@H]3C/C=C\CCN(C3=O)[C@@H](Cc3ccc(C(F)(F)F)cc3)C(=O)N(C)CC(=O)N[C@@H](CCc3ccc4sccc4c3)C(=O)N2C1 [PP1255] | A (a compound having 10 or more and less than 20 is denoted as A) | 156 | A (a compound having 10 or more and less than 20 is denoted as A) | 0.39 |
| CCC[C@H]1C(=O)N[C@@H]([C@@H](C)CC)C(=O)N(C)CC(=O)N(C)[C@H]2C/C=C\CCN(C2=O)[C@@H](Cc2ccc(C(F)(F)F)cc2)C(=O)N(C)CC(=O)N[C@@H](CCc2ccc3sccc3c2)C(=O)N2C[C@H](OCC)C[C@H]2C(=O)NC2(CCC2)C(=O)N(C)[C@@H](C2CCCC2)C(=O)N(C)[C@H](C(=O)N(C)C)CC(=O)N1C [PP1256] | A (a compound having 10 or more and less than 20 is denoted as A) | 69 | A (a compound having 10 or more and less than 20 is denoted as A) | 0.36 |
| CCO[C@@H]1C[C@H]2C(=O)NC3(CCC3)C(=O)N(C)[C@@H](C3CCCC3)C(=O)N(C)[C@H](C(=O)N(C)C)CC(=O)N(C)[C@@H](CC(C)C)C(=O)N[C@@H]([C@@H](C)CC)C(=O)N(C)CC(=O)N(C)[C@H]3C/C=C\CCN(C3=O)[C@@H](Cc3ccc(C(F)(F)F)cc3)C(=O)N(C)CC(=O)N[C@@H](CCc3ccc4sccc4c3)C(=O)N2C1 [PP1257] | A (a compound having 10 or more and less than 20 is denoted as A) | 54.3 | A (a compound having 10 or more and less than 20 is denoted as A) | 0.33 |
| CCCCCC[C@H]1C(=O)N[C@@H]([C@@H](C)CC)C(=O)N(C)CC(=O)N(C)[C@H]2C/C=C\CCN(C2=O)[C@@H](Cc2ccc(C(F)(F)F)cc2)C(=O)N(C)CC(=O)N[C@@H](CCc2ccc3sccc3c2)C(=O)N2C[C@H](OCC)C[C@H]2C(=O)NC2(CCC2)C(=O)N(C)[C@@H](C2CCCC2)C(=O)N(C)[C@H](C(=O)N(C)C)CC(=O)N1C [PP1259] | A (a compound having 10 or more and less than 20 is denoted as A) | 62 | A (a compound having 10 or more and less than 20 is denoted as A) | 0.49 |
| CCO[C@@H]1C[C@H]2C(=O)NC3(CCC3)C(=O)N(C)[C@@H](C3CCCC3)C(=O)N(C)[C@H](C(=O)N(C)C)CC(=O)N(C)[C@@H](CC3CC3)C(=O)N[C@@H]([C@@H](C)CC)C(=O)N(C)CC(=O)N(C)[C@H]3C/C=C\CCN(C3=O)[C@@H](Cc3ccc(C(F)(F)F)cc3)C(=O)N(C)CC(=O)N[C@@H](CCc3ccc4sccc4c3)C(=O)N2C1 [PP1260] | A (a compound having 10 or more and less than 20 is denoted as A) | 60.4 | A (a compound having 10 or more and less than 20 is denoted as A) | 0.37 |
| CCO[C@@H]1C[C@H]2C(=O)NC3(CCC3)C(=O)N(C)[C@@H](C3CCCC3)C(=O)N(C)[C@H](C(=O)N(C)C)CC(=O)N(C)[C@@H](CC3CCCC3)C(=O)N[C@@H]([C@@H](C)CC)C(=O)N(C)CC(=O)N(C)[C@H]3C/C=C\CCN(C3=O)[C@@H](Cc3ccc(C(F)(F)F)cc3)C(=O)N(C)CC(=O)N[C@@H](CCc3ccc4sccc4c3)C(=O)N2C1 [PP1261] | A (a compound having 10 or more and less than 20 is denoted as A) | 76.8 | A (a compound having 10 or more and less than 20 is denoted as A) | 0.44 |
| CCO[C@@H]1C[C@H]2C(=O)NC3(CCC3)C(=O)N(C)[C@@H](C3CCCC3)C(=O)N(C)[C@H](C(=O)N(C)C)CC(=O)N(C)[C@@H](CC)C(=O)N[C@@H]([C@@H](C)CC)C(=O)N(C)CC(=O)N(C)[C@H]3C/C=C\CCN(C3=O)[C@@H](Cc3ccc(C(F)(F)F)cc3)C(=O)N(C)CC(=O)N[C@@H](CCc3cc(F)c(Cl)c(F)c3)C(=O)N2C1 [PP1262] | A (a compound having 10 or more and less than 20 is denoted as A) | 56.7 | B (a compound having 3 or more and less than 10 is denoted as B) | 0.24 |
| CCO[C@@H]1C[C@H]2C(=O)NC3(CCC3)C(=O)N(C)[C@@H](C3CCCC3)C(=O)N(C)[C@H](C(=O)N(C)C)CC(=O)N(C)[C@@H](CC(C)C)C(=O)N[C@@H]([C@@H](C)CC)C(=O)N(C)CC(=O)N(C)[C@H]3C/C=C\CCN(C3=O)[C@@H](Cc3ccc(C(F)(F)F)cc3)C(=O)N(C)CC(=O)N[C@@H](CCc3cc(F)c(Cl)c(F)c3)C(=O)N2C1 [PP1263] | A (a compound having 10 or more and less than 20 is denoted as A) | 18.9 | A (a compound having 10 or more and less than 20 is denoted as A) | 0.23 |
| CCO[C@@H]1C[C@H]2C(=O)NC3(CCC3)C(=O)N(C)[C@@H](C3CCCC3)C(=O)N(C)[C@H](C(=O)N(C)C)CC(=O)N(C)[C@@H](CC3CCCC3)C(=O)N[C@@H]([C@@H](C)CC)C(=O)N(C)CC(=O)N(C)[C@H]3C/C=C\CCN(C3=O)[C@@H](Cc3ccc(C(F)(F)F)cc3)C(=O)N(C)CC(=O)N[C@@H](CCc3cc(F)c(Cl)c(F)c3)C(=O)N2C1 [PP1264] | A (a compound having 10 or more and less than 20 is denoted as A) | 15.9 | B (a compound having 3 or more and less than 10 is denoted as B) | 0.37 |
| CCO[C@@H]1C[C@H]2C(=O)NC3(CCC3)C(=O)N(C)[C@@H](C3CCCC3)C(=O)N(C)[C@H](C(=O)N(C)C)CC(=O)N(C)[C@@H](CC)C(=O)N[C@@H]([C@@H](C)CC)C(=O)N(C)CC(=O)N(C)[C@H]3C/C=C\CCN(C3=O)[C@@H](Cc3ccc(C(F)(F)F)cc3)C(=O)N(C)CC(=O)N[C@@H](CCc3ccc(C(F)(F)F)c(C)c3)C(=O)N2C1 [PP1265] | A (a compound having 10 or more and less than 20 is denoted as A) | 14.1 | B (a compound having 3 or more and less than 10 is denoted as B) | 0.17 |
| CCOC[C@H]1C(=O)N[C@@H]([C@@H](C)CC)C(=O)N(C)CC(=O)N(C)[C@H]2C/C=C\CCN(C2=O)[C@@H](Cc2ccc(C(F)(F)F)cc2)C(=O)N(C)CC(=O)N[C@@H](CCc2cc(F)c(C(F)(F)F)c(F)c2)C(=O)N2C[C@H](OCC)C[C@H]2C(=O)NC2(CCC2)C(=O)N(C)[C@@H](C2CCCC2)C(=O)N(C)[C@H](C(=O)N(C)C)CC(=O)N1C [PP1266, (2S,8S,12R,14S,20S,23S,27S,30S,36S,38Z)-20-cyclopentyl-8-[2-[3,5-difluoro-4-(trifluoromethyl)phenyl]ethyl]-12-ethoxy-27-(ethoxymethyl)-N,N,4,19,22,26,32,35-octamethyl-30-[(1S)-1-methylpropyl]-3,6,9,15,18,21,25,28,31,34,42-undecaoxo-2-[[4-(trifluoromethyl)phenyl]methyl]spiro[1,4,7,10,16,19,22,26,29,32,35-undecazatricyclo[34.5.1.0^10,14]dotetracont-38-ene-17,1′-cyclobutane]-23-carboxamide] | A (a compound having 10 or more and less than 20 is denoted as A) | 12.2 | A (a compound having 10 or more and less than 20 is denoted as A) | 0.045 |
| CCO[C@@H]1C[C@H]2C(=O)NC3(CCC3)C(=O)N(C)[C@@H](C3CCCC3)C(=O)N(C)[C@H](C(=O)N(C)C)CC(=O)N(C)[C@@H](COCC(F)(F)F)C(=O)N[C@@H]([C@@H](C)CC)C(=O)N(C)CC(=O)N(C)[C@H]3C/C=C\CCN(C3=O)[C@@H](Cc3ccc(C(F)(F)F)cc3)C(=O)N(C)CC(=O)N[C@@H](CCc3cc(F)c(C(F)(F)F)c(F)c3)C(=O)N2C1 [PP1267] | A (a compound having 10 or more and less than 20 is denoted as A) | 10.8 | A (a compound having 10 or more and less than 20 is denoted as A) | 0.046 |
